The IC50 is the concentration needed to halve the response being measured. A high value points to lower potency. Broadly, the % Inhibition is how much of the control response was suppressed.

Experimental findings from patent US5441974A, “Phenyl amidines lactones useful as platelet aggregation inhibitors” (G. D. Searle & Co., priority 1994, dated 1995) are described below.

This experiment relates to platelet aggregation. In words: In-Vitro Platelet Aggregation in PRP (ADP-induced). Format: cell-based. To be noted: dog platelet-rich plasma, ADP 50 μm final; for IC50: 1 min preincubation at 37° C.; for % Inhibition: Test Concentration 1 × 10^-5. How it is done:
Compounds of the invention were evaluated by an in vivo assay to determine compound activity as an inhibitors of platelet aggregation.
Healthy male or female dogs were fasted for 8 hours prior to drawing blood; then 30 mL whole blood was collected using a butterfly needle and 30 cc plastic syringe with 3 ml of 0.129M buffered sodium citrate (3.8%). The syringe was rotated carefully as blood was drawn to mix the citrate. Platelet-rich plasma (PRP) was prepared by centrifugation at 975×g for 3.17 minutes at room temperature, allowing the centrifuge to coast to a stop without braking. The PRP was removed from the blood with a plastic pipette and placed in a plastic capped, 50 ml Corning conical sterile centrifuge tube which was held at room temperature. Platelet poor plasma (PPP) was prepared by centrifuging the remaining blood at 2000×g for 15 minutes at room temperature allowing the centrifuge to coast to a stop without braking. The PRP was adjusted with PPP to a count of 2-3×10^8 platelets per ml. 400 μL of the PRP preparation and 50 μL of the compound to be tested or saline were preincubated for 1 minute at 37° C. in a BioData aggregometer (BioData, Horsham, Pa.). 50 μL of adenosine 5'diphosphate (ADP) (50 μm final concentration) was added to the cuvettes and the aggregation was monitored for 1 minute. All compounds are tested in duplicate. Results are calculated as follows:
Percent of control=[(maximal OD minus initial OD of compound) divided by (maximal OD minus initial OD of control saline)]×100. The % inhibition=100 - (percent of control).

Where [1] appears, read: Canis lupus familiaris, Platelet.

Structures are written as SMILES. Structures can show the parent of a compound that is named as a salt.

With `N=C(N)c1ccc(CCCCC(=O)NC2CC(=O)Oc3ccccc32)cc1` (racemic) [Example 2, (±)-4-(Aminoiminomethyl)-N-(3,4-dihydro-2-oxo-2H-1-benzopyran-4-yl) benzenepentanamide], half-maximal inhibition under setting [1] (IC50) required 2000 nM. With `COc1ccc2c(c1)OC(=O)CC2NC(=O)CCCCc1ccc(C(=N)N)cc1` (racemic) [Example 3, (±)-4-(Aminoiminomethyl)-N-(3,4-dihydro-7-methoxy-2-oxo-2H-1-benzopyran-4-yl)benzenepentanamide], the “% Inhibition” value stood at 96%. Also, under setting [1], the IC50 came out at 1100 nM. On to `N=C(N)c1ccc(CCCCC(=O)N[C@H]2CC(=O)OC2c2nccs2)cc1` (single isomer, unassigned; diastereoisomer a) [Example 7, 4-(aminoiminomethyl)-N-[tetrahydro-5-oxo-2-(2-thiazolyl)-3S-furanyl]benzene pentanamide, bis(trifluoroacetate) (diastereoisomer A)], for which the half-inhibitory concentration (IC50) was over 10000 nM. The compound `N=C(N)c1ccc(CCCCC(=O)N[C@H]2CC(=O)OC2c2ccccc2)cc1` (single isomer, unassigned; diastereoisomer b) [Example 5, 4-(aminoiminomethyl)-N-(tetrahydro-5-oxo-2-phenyl-3S-furanyl)benzenepentanamide, trifluoroacetate (diastereoisomer B)] gave an IC50 of 5100 nM. In other words, the single-digit micromolar range.

In the case of `N=C(N)c1ccc(CCCCC(=O)NC2CC(=O)OC2c2nccs2)cc1` (single isomer, unassigned; diastereoisomer b) [Example 8, 4-(aminoiminomethyl)-N-[tetrahydro-5-oxo-2-(2-thiazolyl)-3S-furanyl]benzene pentanamide, trifluoroacetate. (diastereoisomer B)], the 50% inhibitory concentration (IC50) was over 10000 nM. With `N=C(N)c1ccc(CCCCC(=O)N[C@H]2CC(=O)OC2c2ccccc2)cc1` (single isomer, unassigned; diastereomer a) [Example 4], the IC50 was 680 nM and the “% Inhibition” value is 100%. As to `N=C(N)c1ccc(CCCCC(=O)N[C@@H]2COC(=O)C2)cc1` [Example 1, 4-(Aminoiminomethyl)-N-(5-oxo-3S-furanyl)benzenepentanamide], the “% Inhibition” value is given as 44%.
